Measured values as given in US9949970B2, “Synthesis of new benzothiazole derivatives as potential anti-tubercular agents” (priority 2010, dated 2018).
≈ marks a conversion by molar mass, not a printed value. Like-named read-outs stand apart in the source and are kept apart here.

How the values were obtained:
M. tuberculosis H37Rv [1] = details: closest benzothiazole compounds; cited from earlier work
AML-12 cell lines = test: Cytotoxicity MTT assay on AML-12 cell lines; assay type: cell-based; details: for Cytotoxicity: AML-12 cell line, MTT, 24 hrs, test material 2-100 μg/ml; for Cytotoxicity (result in words): AML-12 cell lines, MTT assay
Procedure: The potent compounds 3j, 4e, 6a, 6f, 6g, 6i, and 6p were evaluated for cytotoxic effect on AML-12 cell lines using MTT assay, in a 96 well plate format. Cells were incubated in Dulbecco's Modified Eagle's Medium (DMEM) containing 10% fetal calf serum (FCS) with the test material (2-100 μg/ml) for 24 hrs. at 37° C. in CO2 incubator. After the completion of incubation 3-(4,5-dimethylthiazol-2-yl)-2,5-diphenyltetrazolium bromide (MTT) was added and cells were further incubated for 3 h at 37° C. in CO2 incubator. Formation of formazan salt by mitochondrial dehydrogenases, and was determined by Elisa reader at 565 nm (Multiskan Spectrum; Thermo Electron Corporation, USA). The percentage cytotoxicity was calculated with respect to the untreated cells.

M. tuberculosis H37Rv [2] = test: Antimycobacterial activity: MIC by broth microdilution / Nitrate Reductase Assay; assay type: cell-based, Mycobacterium tuberculosis; details: lowest concentration showing no colour change (NRA)
M. tuberculosis (H37Rv) = test: In vivo efficacy in lungs of infected mice; set-up: species or system Swiss albino mice; details: for In vivo activity (result in words) / Decrease of bacterial load in lung with late control (protections): mice; for In vivo activity (result in words): lung; for Decrease of bacterial load in lung with late control (protections): versus late control; for Log10 CFU/left Lung: infected female Swiss albino mice
[3] = Mycobacterium tuberculosis, H37RV, read-out: MIC

Row | Compound | Cytotoxicity (AML-12 cell lines) [µg/mL] | Cytotoxicity (result in words) (AML-12 cell lines) | MIC (M. tuberculosis H37Rv [2]; [3]) [µg/mL] | MIC (M. tuberculosis H37Rv [2]) [µg/mL] | further results
1 | COC(=O)[C@H](NC(=O)c1cc(COc2ccc3nc(C)sc3c2)on1)c1ccccc1 | – | – | – | – | MIC (M. tuberculosis H37Rv [1]): 1.9 µg/mL (≈ 4.34 µM)
2 | COC(=O)C(NC(=O)c1cc(COc2ccc3nc(C)sc3c2)on1)c1ccccc1 (stereo not shown) | – | – | – | – | MIC (M. tuberculosis H37Rv [1]): 1.4 µg/mL (≈ 3.2 µM)
3 | CC(=NNC1CSC(c2ccc3c(c2)CCC3)=N1)c1ccc(C)cc1 (stereo not shown) | – | – | – | – | MIC (M. tuberculosis H37Rv [1]): >6.5 µg/mL
4 | O=[N+]([O-])c1cc(CSc2nc3ccccc3s2)cc([N+](=O)[O-])c1 | – | – | – | – | MIC (M. tuberculosis H37Rv [1]): 2 µg/mL (≈ 5.76 µM)
5 | O=[N+]([O-])c1ccc(CSc2nc3ccccc3s2)c([N+](=O)[O-])c1 | – | – | – | – | MIC (M. tuberculosis H37Rv [1]): 2 µg/mL (≈ 5.76 µM)
6 | Clc1ccccc1/C=N/c1nc2ccccc2s1 | – | – | – | – | MIC (M. tuberculosis H37Rv [1]): 73 µg/mL (≈ 268 µM)
7 | O=[N+]([O-])c1ccc(C=NNc2nc3ccc(OC(F)(F)F)cc3s2)s1 [Compound 3j, 5-nitro-2-thiophenecarbaldehyde 2-(6-trifluoromethoxy-1,3-benzothiazole-2-yl)hydrazone] | >100 | no cytotoxicity | 0.5 to 8 (≈ 1.29 to 20.6 µM) | 1 (≈ 2.57 µM) | –
8 | O=C(NNc1nc2ccc(C(F)(F)F)cc2s1)c1ccc([N+](=O)[O-])o1 [Compound 4d, N′2-(6-trifluoromethyl-1,3-benzothiazol-2-yl)-5-nitro-2-furancarbohydrazide] | – | – | > 16 | – | –
9 | O=C(NNc1nc2ccc(OC(F)(F)F)cc2s1)c1ccc([N+](=O)[O-])o1 [Compound 4e, N′2-(6-trifluoromethoxy-1,3-benzothiazol-2-yl)-5-nitro-2-furanecarbohydrazide] | >100 | no cytotoxicity | – | – | –
10 | O=C(NNc1nc2ccc(F)cc2s1)c1ccc([N+](=O)[O-])o1 [Compound 4f, N′2-(6-fluoro-1,3-benzothiazol-2-yl)-5-nitro-2-furanecarbohydrazide] | – | – | > 16 | – | –
11 | O=C(NNc1nc2ccc(Cl)cc2s1)c1ccc([N+](=O)[O-])o1 [Compound 4g, N′2-(6-chloro-1,3-benzothiazol-2-yl)-5-nitro-2-furanecarbohydrazide] | – | – | > 16 | – | –
12 | O=C(NNc1nc2ccc([N+](=O)[O-])cc2s1)c1ccc([N+](=O)[O-])o1 [Compound 4h, N′2-(6-nitro-1,3-benzothiazol-2-yl)-5-nitro-2-furanecarbohydrazide] | – | – | – | – | MIC (M. tuberculosis H37Rv [2]; Mycobacterium tuberculosis, H37RV): 16 µg/mL (≈ 45.8 µM)
13 | O=C(Nc1nc2ccc(NC(=O)c3ccc([N+](=O)[O-])o3)cc2s1)c1ccccc1 [Compound 6a, N2-[2-(benzoylamino)-1,3-benzothiazol-6-yl]-5-nitrofuramide] | >100 | no cytotoxicity | 0.5 to 8 (≈ 1.22 to 19.6 µM) | 1 (≈ 2.45 µM) | –
14 | O=C(Nc1nc2ccc(NC(=O)c3ccc([N+](=O)[O-])o3)cc2s1)c1ccc(F)cc1 [Compound 6f, N2-{2-[(4-fluorobenzoyl)amino]-1,3-benzothiazol-6-yl}-5-nitrofuramide] | >100 | no cytotoxicity | – | 0.5 (≈ 1.17 µM) | In vivo activity (result in words) (M. tuberculosis (H37Rv); 25 mg/kg): bacteriostatic activities; Decrease of bacterial load in lung with late control (protections) (M. tuberculosis (H37Rv); 25 mg/kg): 1.0; Log10 CFU/left Lung (M. tuberculosis (H37Rv); 25 mg/kg): 6.0 ± 0.13
15 | O=C(Nc1nc2ccc(NC(=O)c3ccc([N+](=O)[O-])o3)cc2s1)c1ccc(Cl)cc1 [Compound 6g, N2-{2-[(4-chlorobenzoyl)amino]-1,3-benzothiazol-6-yl}-5-nitrofuramide] | >100 | no cytotoxicity | – | 0.5 (≈ 1.13 µM) | In vivo activity (result in words) (M. tuberculosis (H37Rv); 25 mg/kg): bacteriostatic activities; Decrease of bacterial load in lung with late control (protections) (M. tuberculosis (H37Rv); 25 mg/kg): 1.0; Log10 CFU/left Lung (M. tuberculosis (H37Rv); 25 mg/kg): 6.1 ± 0.48
16 | O=C(Nc1ccc2nc(NC(=O)c3ccc(F)cc3F)sc2c1)c1ccc([N+](=O)[O-])o1 [Compound 6i, N2-{2-[(2,4-difluorobenzoyl)amino]-1,3-benzothiazol-6-yl}-5-nitrofuramide] | >100 | no cytotoxicity | – | 0.5 (≈ 1.13 µM) | In vivo activity (result in words) (M. tuberculosis (H37Rv); 25 mg/kg): bacteriostatic activities; Decrease of bacterial load in lung with late control (protections) (M. tuberculosis (H37Rv); 25 mg/kg): 1.0; Log10 CFU/left Lung (M. tuberculosis (H37Rv); 25 mg/kg): 6.3 ± 0.37
17 | O=C(Nc1nc2ccc(NC(=O)c3ccc([N+](=O)[O-])o3)cc2s1)c1cnccn1 [Compound 6p, N2-(6-{[(5-nitro-2-furyl)carbonyl]amino}-1,3-benzothiazol-2-yl)-2-pyrazinecarboxamide] | >100 | no cytotoxicity | – | 1 (≈ 2.44 µM) | –
18 | NNC(=O)c1ccncc1 [INH, Isoniazid, reference compound] | – | – | 0.5 (≈ 3.65 µM) | – | –
19 | CO[C@H]1/C=C/O[C@@]2(C)Oc3c(C)c(O)c4c(O)c(c(/C=N/N5CCN(C)CC5)c(O)c4c3C2=O)NC(=O)/C(C)=C\C=C\[C@H](C)[C@H](O)[C@@H](C)[C@@H](O)[C@@H](C)[C@H](OC(C)=O)[C@@H]1C [RMP, Rifampicin, reference compound] | – | – | 0.25 (≈ 0.304 µM) | – | Log10 CFU/left Lung (M. tuberculosis (H37Rv); 20 mg/kg): 2.0 ± 0.41
20 | N2-(2-{[(E)-3-(4-chlorophenyl)-2-propenoyl]amino}-1,3-benzothiazol-6-yl)-5-nitro-2-furamide [Compound 6w] | >100 | no cytotoxicity | – | – | –
21 | N2-(2-{[(E)-3-phenyl-2-propenoyl]amino}-1,3-benzothiazol-6-yl}-5-nitro-2-furamide [Compound 6q] | >100 | no cytotoxicity | – | 8.0 | –
22 | N3-(6-{[(5-nitro-2-furyl)carbonyl]amino}-1,3-benzothiazol-2-yl)nicotinamide [Compound 6o] | >100 | no cytotoxicity | – | 4.0 | –
